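1) Cells in 96-well plates. 2) Compound, 48 h, 5 concentrations. 3) Linear interpolation between surrounding doses. 4) Unreached endpoint = highest concentration. The concentration for 50% growth inhibition is given as GI50.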 Activity calls are given as the source filed them. Cut-off read from the data, not from the text of the source: active = GI50 up to about 1.1 µM and inactive = higher.
What was measured:
Assay in all cases: inhibition of tumour cell growth, NCI panel, 48 h
NCI-H460 = tested on: NCI-H460
MOLT-4 = tested on: MOLT-4
HT-29 = tested on: HT-29
UACC-62 = tested on: UACC-62
SK-MEL-5 = tested on: SK-MEL-5
K562 = tested on: K562
LOX IMVI = tested on: LOX IMVI
SN12C = tested on: SN12C
U-251 = tested on: U-251
786-0 = tested on: 786-0
SNB-75 = tested on: SNB-75
SK-MEL-2 = tested on: SK-MEL-2
OVCAR-5 = tested on: OVCAR-5
RPMI-8226 = tested on: RPMI-8226
KM12 = tested on: KM12
UACC-257 = tested on: UACC-257

Measured: GI50

CCCCN1C(=O)C2c3[nH]c4ccccc4c3C3CCCCC3C2C1=O.CCCCN1C(=O)C2c3[nH]c4ccccc4c3[C@@H]3CCCCC3C2C1=O (configuration not stated)
inactive: NCI-H460 10.5 µM | MOLT-4 5.69 µM | HT-29 28.8 µM | UACC-62 19.1 µM | SK-MEL-5 23.6 µM | K562 14.7 µM | LOX IMVI 10.9 µM | SN12C 35.9 µM | U-251 16.4 µM | 786-0 4.41 µM | SNB-75 7.11 µM

COc1cc(C2C(C(=O)Nc3cc(F)c(F)cc3F)=C(C)NC(C)=C2C(=O)Nc2cc(F)c(F)cc2F)ccc1O
inactive: NCI-H460 27.3 µM | MOLT-4 11.3 µM | HT-29 29 µM | SK-MEL-5 18.5 µM | K562 18.4 µM | SK-MEL-2 22.5 µM | LOX IMVI 15.2 µM | OVCAR-5 17.4 µM | RPMI-8226 16.3 µM | KM12 13.3 µM | SN12C 17.7 µM | UACC-257 17.9 µM | U-251 23.6 µM | 786-0 26.7 µM | SNB-75 2.36 µM

COc1ccc(/C=[N+](\[O-])[C@H](COCc2ccccc2)c2ccccc2)cc1
inactive: NCI-H460 63.7 µM | MOLT-4 25.2 µM | HT-29 52.1 µM | K562 45.3 µM | SK-MEL-2 30.3 µM | LOX IMVI 89.9 µM | OVCAR-5 > 100 µM | RPMI-8226 15.7 µM | KM12 89.1 µM | UACC-257 > 100 µM | U-251 > 100 µM | 786-0 > 100 µM | SNB-75 > 100 µM

COc1ccc2oc(-c3cc4cc(OC)ccc4o3)cc2c1
inactive: NCI-H460 > 100 µM | MOLT-4 > 100 µM | UACC-62 > 100 µM | SK-MEL-5 > 100 µM | K562 > 100 µM | SK-MEL-2 > 100 µM | LOX IMVI > 100 µM | OVCAR-5 > 100 µM | RPMI-8226 > 100 µM | KM12 > 100 µM | SN12C > 100 µM | UACC-257 > 100 µM | 786-0 > 100 µM | SNB-75 > 100 µM

Cc1ccc(NC(=O)c2cccc([N+](=O)[O-])c2O)c([N+](=O)[O-])c1
inactive: NCI-H460 5.58 µM | MOLT-4 > 10 µM | HT-29 12.1 µM | UACC-62 12 µM | K562 18.8 µM | LOX IMVI 11.5 µM | OVCAR-5 20.2 µM | RPMI-8226 8.69 µM | KM12 10.6 µM | SN12C 16.5 µM | UACC-257 16.2 µM | U-251 14.3 µM | 786-0 12.7 µM | SNB-75 13.7 µM

Reference: ChEMBL document CHEMBL1201862, “PubChem BioAssay data set” (2004)
